Experiments:
[1] = test system: patients having esophageal erosions; experiment: Randomized seven day trial in patients with esophageal erosions (Example 19); type: in vivo, human; settings: for Complete Relief, number of patients / Complete Relief, percent of patients: loss of all symptoms by day 8; for Complete Healing, number of patients / Complete Healing, percent of patients: no erosions by endoscopy at day 8
Description: The trial period was seven days. There were two primary end points, i.e., healing and no healing, and three secondary end points, i.e., no relief, partial relief, and complete relief of pain. Healing was defined as no evidence of erosions by endoscopy at day 8 that were present on day 0. No healing was defined as evidence of erosions remaining on day 8.

[2] = test system: patient with functional dyspepsia; experiment: Case: patient with functional dyspepsia (Example 14); type: in vivo, human; settings: post-prandial early satiety, bloating, indigestion
Description: A person diagnosed with functional dyspepsia according to the Rome II criteria suffered from post-prandial early satiety, bloating, and stomach indigestion. […] Initially, there was only a lessening of post-prandial indigestion.

right dorsal colitis = experiment: Case: equine right dorsal colitis (Example 23); type: in vivo, horse; settings: 8-12 grams four times daily, NSAID stopped
Description: An 8 year old quarter horse diagnosed with right dorsal colitis by an equine veterinarian had been on high doses of bananime, a non-steroidal anti-inflammatory (NSAID) pain reliever. Right dorsal colitis is known to be caused by ulcerations within the colon of the horse. Treatment was initiated by cessation of the NSAID and administration of 8-12 grams sucralfate four times daily. […] Oral administration to the horse of 30 ml of an immuno-modulating polygalacturonic-rhamnose suspension every 8 hours led to an improvement in attitude and appetite within 24 hours, a complete cessation of diarrhea in 36 hours, and the resumption of a regular diet in 72 hours.

[3] = test system: gastroduodenal ulceration; experiment: Case: equine ulcer colic in a foal (Example 24); type: in vivo; settings: prior treatment
Description: A 3 week old equine foal was diagnosed by a large animal veterinarian with gastroduodenal ulceration following 3 days of poor appetite. […] The foal resumed normal diet and activity by day 4 of treatment.

Molecule | Complete Relief, number of patients [1] | Complete Relief, percent of patients [1] | Complete Healing, number of patients [1] | Complete Healing, percent of patients [1] | Complete Healing, percent of patients ([1]; listed as ranitidine) | Effect on symptoms of functional dyspepsia [2] | Course of right dorsal colitis under treatment (right dorsal colitis) | Effect on symptoms [3]
CNC(=C[N+](=O)[O-])NCCSCc1ccc(CN(C)C)o1 [H2B Ranitidine, ranitidine] | 3 | 30% | 0 (0%) | 0 (0%) | 0% | – | – | –
COc1ccc2nc([S@@+]([O-])Cc3ncc(C)c(OC)c3C)[nH]c2c1 [esomeprazole] | – | – | – | – | – | failed to improve their symptoms | – | –
COCCCOc1ccnc(C[S+]([O-])c2nc3ccccc3[nH]2)c1C (centres unmarked) [raberazole] | – | – | – | – | – | failed to improve their symptoms | – | –
COc1ccc2[nH]c([S+]([O-])Cc3ncc(C)c(OC)c3C)nc2c1 (centres unmarked) [Omeprazole, omeprazole] | 4 | 40% | 3 | 30% | – | – | – | –
sucralfate | – | – | – | – | – | failed to improve their symptoms | worsened after 2 days | failed to alleviate the symptoms

— US20150025025A1, “Immuno-modulators for treating functional epithelial syndromes” (priority 2013, published 2015)
